Assay results as given in article PMC13267044, “Ten previously undescribed norsesquiterpenoids from the fungus Marasmiellus candidus and their anti-inflammatory activities” (Mycology, 2025).

Key:
RAW264.7 macrophages = test: Cell viability assay (CCK-8) in RAW264.7 macrophages; assay type: cell-based; details: RAW 264.7 cells, 24 h, tested at 20, 40, 80 μmol/L
Experimental: RAW264.7 macrophages were seeded in 96-well plates (5 × 10^4 cells/well) and cultured at 37 °C with 5% CO₂ for 24 h. After adhesion, test samples (20, 40, 80 μmol/L) or medium (blank) were added and incubated for 24 h. Subsequently, 10 μL of CCK-8 solution was added, and after 2 h of incubation, the absorbance was measured at 450 nm.
Cell viability (%) = (ODsample/ODblank) × 100%

RAW 264.7 cells = test: NO production inhibition in LPS-induced RAW 264.7 cells (Griess reagent method); assay type: cell-based; details: LPS-induced (10 μg/mL) RAW 264.7 cells, 24 h, mean ± standard deviation (n = 3)
Experimental: RAW 264.7 cells were cultured as above, then divided into blank control, LPS-induced (10 μg/mL, model), and sample-treated groups. After 24 h, supernatants were centrifuged (12,000 r/min, 5 min) and collected. NO production was assessed using the standard Griess reagent method (Fan et al. [2023]).
Inhibition rate (%) = [(NOmodel – NOsample)/(NOmodel – NOblank)] × 100%.

## COC(=O)C(C)(C)c1ccc(C(=O)O)c2c1C(=O)OC2O (racemic) [Compound 8, (±)-Marasmielolic acid D]
RAW264.7 macrophages
  Cytotoxicity: > 80 µmol/L
RAW 264.7 cells; Mus musculus, RAW264.7
  IC50: 50.8 ± 3.4 µM

## N=C(N)NN [Aminoguanidine, aminoguanidine, reference compound]
RAW264.7 macrophages
  Cytotoxicity: > 80 µmol/L
RAW 264.7 cells
  IC50: 12.5 ± 1.8 µM

## CC1(C)OC(=O)c2c1ccc1c2COC1=O [Compound 1, Marasmiellactone R]
RAW264.7 macrophages
  Cytotoxicity: > 80 µmol/L
RAW 264.7 cells; Mus musculus, RAW264.7
  IC50: 18.2 ± 1.9 µM

## C[C@]1(CO)OC(=O)c2c1ccc1c2COC1=O [Compound 2, Marasmiellactone S]
RAW264.7 macrophages
  Cytotoxicity: > 80 µmol/L
RAW 264.7 cells; Mus musculus, RAW264.7
  IC50: 16.7 ± 1.6 µM

## CC(=O)OC[C@@]1(C)OC(=O)c2c1ccc1c2COC1=O [Compound 3, 10-O-acetylmarasmiellactone S]
RAW264.7 macrophages
  Cytotoxicity: > 80 µmol/L
RAW 264.7 cells; Mus musculus, RAW264.7
  IC50: 22.1 ± 2.6 µM

## C[C@@H]1OC(=O)c2c1ccc1c2COC1=O [Compound 4, 10-normarasmiellactone R]
RAW264.7 macrophages
  Cytotoxicity: > 80 µmol/L
RAW 264.7 cells; Mus musculus, RAW264.7
  IC50: 15.5 ± 1.4 µM

## CC(C)(CC(=O)O)c1ccc(C(=O)O)c2c1C(=O)NC2=O [Compound 5, Marasmielolic acid A]
RAW264.7 macrophages
  Cytotoxicity: > 80 µmol/L
RAW 264.7 cells; Mus musculus, RAW264.7
  IC50: 53.5 ± 3.9 µM

## CC(C)(CC(=O)O)c1ccc(C(=O)O)c2c1C(=O)OC2 [Compound 6, Marasmielolic acid B]
RAW264.7 macrophages
  Cytotoxicity: > 80 µmol/L
RAW 264.7 cells; Mus musculus, RAW264.7
  IC50: 65.4 ± 4.6 µM

## CC(C)(C(=O)O)c1ccc(C(=O)O)c2c1C(=O)OC2 [Compound 7, normarasmielolic acid B]
RAW264.7 macrophages
  Cytotoxicity: > 80 µmol/L
RAW 264.7 cells; Mus musculus, RAW264.7
  IC50: 69.2 ± 3.1 µM

## COC(=O)c1c(C(=O)O)ccc2c1C(=O)OC2(C)C [Compound 9, Marasmielolic acid E]
RAW264.7 macrophages
  Cytotoxicity: > 80 µmol/L
RAW 264.7 cells; Mus musculus, RAW264.7
  IC50: > 100 µM

## COC(=O)c1c(C(=O)O)ccc2c1C(=O)C(O)=CC2(C)C [Compound 10, Marasmielolic acid F]
RAW264.7 macrophages
  Cytotoxicity: > 80 µmol/L
RAW 264.7 cells; Mus musculus, RAW264.7
  IC50: > 100 µM
